Measurements: patent US20240208972A1, “LRRK2 INHIBITORS AND USES THEREOF” (NEURON23, INC., priority 2022, published 2024)

Tests used:
[1] = Human hepatocyte stability, in vitro h-Hept CLpredict; format: in vitro ADME; conditions: cryopreserved hepatocytes, predicted hepatic clearance, cells without asterisk, read-out: hHep Cl
Summary of the method: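 Cryopreserved human hepatocytes at 0.5×10^6 viable cells/mL in William's E medium, compound added from 100 μM solution, sampled 0–120 min in duplicate with LC/MS/MS quantitation. t1/2 from parent disappearance converted to CLint, then scaled to predicted hepatic clearance (well-stirred model, fub assumed 1) and extraction ratio.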

Caco-2 cells = test: Caco-2 bidirectional permeability; format: in vitro ADME; conditions: for Caco-2 A2B (10^−6 cm/s): A to B; for Caco-2 A2B (10^−6 cm/s) / Caco-2 B2A (10^−6 cm/s): HBSS pH 7.4, 2 hours; for Caco-2 B2A (10^−6 cm/s): B to A; for Caco-2 ER: Efflux Ratio=Papp (BA)/Papp (AB)
Summary of the method: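 Caco-2 monolayers grown 21–28 days on PET inserts were run in duplicate in HBSS with 10 mM HEPES, pH 7.4. Compound was tested in both directions at […] for 2 h at 37 °C and quantified by LC-MS/MS. Papp, % recovery and efflux ratio (B-A/A-B) were calculated, with lucifer yellow checking monolayer integrity.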

SMILES | CLhep predicted at 1 µM [1] | Caco-2 A2B (10^−6 cm/s) (Caco-2 cells) | Caco-2 B2A (10^−6 cm/s) (Caco-2 cells) | Caco-2 ER (Caco-2 cells)
Cc1n[nH]c2c1N=C(c1c(F)cccc1F)Nc1c-2cc(N2CCO[C@@H](C)C2)nc1C [Example 40, (S)-4-(5-(2,6-difluorophenyl)-3,7-dimethyl-1,6-dihydropyrazolo[4,3-d]pyrido[4,3-f][1,3]diazepin-9-yl)-2-methylmorpholine] | < 6.3 mL/min/kg | H (H (High permeability)”: A2B (B2A)>5) | H (H (High permeability)”: A2B (B2A)>5) | N (N (Non-substrate)”: ER<2.5)
Cc1n[nH]c2c1N=C(c1c(F)cccc1F)Nc1c-2cc(N2CCOCC2)nc1C [Example 8, 4-[8-(2,6-difluorophenyl)-5,11-dimethyl-3,4,7,9,12-pentazatricyclo[8.4.0.02,6]tetradeca-1(10),2(6),4,7,11,13-hexaen-13-yl]morpholine] | 6.3 to 14.7 mL/min/kg | H (H (High permeability)”: A2B (B2A)>5) | H (H (High permeability)”: A2B (B2A)>5) | N (N (Non-substrate)”: ER<2.5)
Cc1n[nH]c2c1N=C(c1c(F)cccc1F)Nc1c-2cc(N2CCN(CCF)C[C@H]2C)nc1C (single isomer, unassigned) [Example 18] | 6.3 to 14.7 mL/min/kg | H (H (High permeability)”: A2B (B2A)>5) | H (H (High permeability)”: A2B (B2A)>5) | N (N (Non-substrate)”: ER<2.5)
Cc1n[nH]c2c1N=C(c1c(F)cccc1F)Nc1c(F)cc(N3CCOCC3)cc1-2 [Example 30, 4-(5-(2,6-difluorophenyl)-7-fluoro-3-methyl-1,6-dihydrobenzo[d]pyrazolo[3,4-f][1,3]diazepin-9-yl)morpholine] | 6.3 to 14.7 mL/min/kg | H (H (High permeability)”: A2B (B2A)>5) | H (H (High permeability)”: A2B (B2A)>5) | N (N (Non-substrate)”: ER<2.5)
Cc1n[nH]c2c1N=C(c1c(F)cccc1F)Nc1c-2cc(N2CCN(CC(F)(F)F)CC2)nc1C [Example 23, 5-(2,6-difluorophenyl)-3,7-dimethyl-9-(4-(2,2,2-trifluoroethyl)piperazin-1-yl)-1,6-dihydropyrazolo[4,3-d]pyrido[4,3-f][1,3]diazepine] | 6.3 to 14.7 mL/min/kg | H (H (High permeability)”: A2B (B2A)>5) | H (H (High permeability)”: A2B (B2A)>5) | N (N (Non-substrate)”: ER<2.5)
Fc1cccc(F)c1C1=Nc2c(C(F)F)n[nH]c2-c2cc(N3CCOCC3)ncc2N1 [Example 10, 4-[5-(difluoromethyl)-8-(2,6-difluorophenyl)-3,4,7,9,12-pentazatricyclo[8.4.0.02,6]tetradeca-1(10),2(6),4,7,11,13-hexaen-13-yl]morpholine] | 6.3 to 14.7 mL/min/kg | H (H (High permeability)”: A2B (B2A)>5) | H (H (High permeability)”: A2B (B2A)>5) | N (N (Non-substrate)”: ER<2.5)
Cn1nccc1-c1cc2c(cn1)NC(c1c(F)cccc1F)=Nc1c(Cl)n[nH]c1-2 [Example 59, 3-chloro-5-(2,6-difluorophenyl)-9-(1-methyl-1H-pyrazol-5-yl)-1,6-dihydropyrazolo[4,3-d]pyrido[4,3-f][1,3]diazepine] | 6.3 to 14.7 mL/min/kg | H (H (High permeability)”: A2B (B2A)>5) | H (H (High permeability)”: A2B (B2A)>5) | N (N (Non-substrate)”: ER<2.5)
Cc1n[nH]c2c1N=C(c1c(F)cccc1F)Nc1ccc(N3CCN(CCF)CC3)cc1-2 [Example 25, 5-(2,6-difluorophenyl)-9-[4-(2-fluoroethyl)piperazin-1-yl]-3-methyl-1,6-dihydropyrazolo[4,3-d][1,3]benzodiazepine] | < 6.3 mL/min/kg | H (H (High permeability)”: A2B (B2A)>5) | H (H (High permeability)”: A2B (B2A)>5) | L (L (Likely)”: ER>2.5)
Cc1n[nH]c2c1N=C(c1c(F)cccc1F)Nc1c-2cc(N2CCN(CC(C)F)CC2)nc1C (racemic) [Example 20, 8-(2,6-difluorophenyl)-13-[4-(2-fluoropropyl)piperazin-1-yl]-5,11-dimethyl-3,4,7,9,12-pentazatricyclo[8.4.0.02,6]tetradeca-1(10),2(6),4,7,11,13-hexaene] | < 6.3 mL/min/kg | H (H (High permeability)”: A2B (B2A)>5) | H (H (High permeability)”: A2B (B2A)>5) | N (N (Non-substrate)”: ER<2.5)
CCc1n[nH]c2c1N=C(c1c(F)cccc1F)Nc1cnc(N3CCOCC3)cc1-2 [Example 31, 4-[8-(2,6-difluorophenyl)-5-ethyl-3,4,7,9,12-pentazatricyclo[8.4.0.02,6]tetradeca-1(10),2(6),4,7,11,13-hexaen-13-yl]morpholine] | < 6.3 mL/min/kg | H (H (High permeability)”: A2B (B2A)>5) | H (H (High permeability)”: A2B (B2A)>5) | N (N (Non-substrate)”: ER<2.5)
Cc1n[nH]c2c1N=C(c1c(F)cccc1F)Nc1c-2cc(N2CCN(CC(F)F)CC2)nc1C [Example 19, 13-[4-(2,2-difluoroethyl)piperazin-1-yl]-8-(2,6-difluorophenyl)-5,11-dimethyl-3,4,7,9,12-pentazatricyclo[8.4.0.02,6]tetradeca-1(10),2(6),4,7,11,13-hexaene] | 6.3 to 14.7 mL/min/kg | H (H (High permeability)”: A2B (B2A)>5) | H (H (High permeability)”: A2B (B2A)>5) | N (N (Non-substrate)”: ER<2.5)
